In ChEMBL document CHEMBL3856264, “Discovery of novel 2',4'-dimethyl-[4,5'-bithiazol]-2-yl amino derivatives as orally bioavailable TRPV4 antagonists for the treatment of pain: Part 1” (Bioorg Med Chem Lett, 2016):
Values after ≈ are worked out from the molar mass of the structure shown.

Assays:
[1] = target: T1, Transient receptor potential cation channel subfamily V member 4 (Homo sapiens, UniProt Q9HBA0); assay: Antagonist activity at human recombinant TRPV4 expressed in CHO-K1 cells assessed as blockade of 1000 nM 4alphaPDD-induced calcium mobilization by FLIPR assay; type: cell-based
T1 sequence (Q9HBA0 whole entry): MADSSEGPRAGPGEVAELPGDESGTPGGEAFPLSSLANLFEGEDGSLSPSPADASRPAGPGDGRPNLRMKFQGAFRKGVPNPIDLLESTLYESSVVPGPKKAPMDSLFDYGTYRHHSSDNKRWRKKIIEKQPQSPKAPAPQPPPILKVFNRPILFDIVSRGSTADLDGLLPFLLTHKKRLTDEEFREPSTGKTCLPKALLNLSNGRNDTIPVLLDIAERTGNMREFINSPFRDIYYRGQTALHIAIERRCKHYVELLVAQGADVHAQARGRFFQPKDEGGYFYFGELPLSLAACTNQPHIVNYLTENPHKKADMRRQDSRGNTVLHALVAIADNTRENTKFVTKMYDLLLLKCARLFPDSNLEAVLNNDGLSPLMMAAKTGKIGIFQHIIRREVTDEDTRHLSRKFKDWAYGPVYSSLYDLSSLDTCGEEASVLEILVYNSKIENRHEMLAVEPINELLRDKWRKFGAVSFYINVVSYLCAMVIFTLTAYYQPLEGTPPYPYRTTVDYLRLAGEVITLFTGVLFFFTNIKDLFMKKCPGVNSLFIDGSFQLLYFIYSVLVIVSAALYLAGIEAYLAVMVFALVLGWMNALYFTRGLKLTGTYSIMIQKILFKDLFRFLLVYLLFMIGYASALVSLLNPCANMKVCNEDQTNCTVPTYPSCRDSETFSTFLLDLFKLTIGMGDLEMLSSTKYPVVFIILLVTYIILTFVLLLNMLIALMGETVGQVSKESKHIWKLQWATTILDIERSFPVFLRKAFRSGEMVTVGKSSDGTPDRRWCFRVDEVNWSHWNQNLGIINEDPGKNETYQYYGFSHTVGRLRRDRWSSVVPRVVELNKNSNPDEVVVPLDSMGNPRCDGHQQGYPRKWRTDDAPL

[2] = Aqueous solubility of compound in sodium phosphate buffer containing 1% DMSO at pH 6.8; type: physicochemical
[3] = Stability in human liver microsomes assessed as compound remaining after 30 mins in presence or absence of NADPH generating system at 37 degC; type: ADME, microsome; conditions: read-out: Stability
Cytochrome P450 1A2 = target: T2, Cytochrome P450 1A2 (Homo sapiens, UniProt P05177); assay: Inhibition of CYP1A2 (unknown origin); type: ADME
T2 sequence (P05177 whole entry): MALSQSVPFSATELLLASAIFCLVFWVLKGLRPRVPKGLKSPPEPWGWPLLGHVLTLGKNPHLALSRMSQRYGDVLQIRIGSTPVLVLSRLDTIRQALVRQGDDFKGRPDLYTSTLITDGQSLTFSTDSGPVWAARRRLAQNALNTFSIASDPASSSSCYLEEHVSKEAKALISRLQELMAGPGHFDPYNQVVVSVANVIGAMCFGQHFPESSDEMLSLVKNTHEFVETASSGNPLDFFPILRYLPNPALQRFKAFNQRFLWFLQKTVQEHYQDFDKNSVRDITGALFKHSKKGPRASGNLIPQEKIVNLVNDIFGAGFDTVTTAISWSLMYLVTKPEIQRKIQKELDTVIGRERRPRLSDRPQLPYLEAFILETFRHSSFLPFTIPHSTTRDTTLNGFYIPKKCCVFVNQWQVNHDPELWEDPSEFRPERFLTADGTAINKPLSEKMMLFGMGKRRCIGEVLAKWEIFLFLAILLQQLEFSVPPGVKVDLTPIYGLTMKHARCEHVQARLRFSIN

[4] = Half life in guinea pig at 0.5 mg/kg, iv; type: ADME, organism-based, Cavia porcellus; conditions: in vivo
Cytochrome P450 2C9 = Cytochrome P450 2C9 (Homo sapiens, UniProt P11712); assay: Inhibition of CYP2C9 (unknown origin); type: ADME
Sequence of Cytochrome P450 2C9 (P11712 whole entry): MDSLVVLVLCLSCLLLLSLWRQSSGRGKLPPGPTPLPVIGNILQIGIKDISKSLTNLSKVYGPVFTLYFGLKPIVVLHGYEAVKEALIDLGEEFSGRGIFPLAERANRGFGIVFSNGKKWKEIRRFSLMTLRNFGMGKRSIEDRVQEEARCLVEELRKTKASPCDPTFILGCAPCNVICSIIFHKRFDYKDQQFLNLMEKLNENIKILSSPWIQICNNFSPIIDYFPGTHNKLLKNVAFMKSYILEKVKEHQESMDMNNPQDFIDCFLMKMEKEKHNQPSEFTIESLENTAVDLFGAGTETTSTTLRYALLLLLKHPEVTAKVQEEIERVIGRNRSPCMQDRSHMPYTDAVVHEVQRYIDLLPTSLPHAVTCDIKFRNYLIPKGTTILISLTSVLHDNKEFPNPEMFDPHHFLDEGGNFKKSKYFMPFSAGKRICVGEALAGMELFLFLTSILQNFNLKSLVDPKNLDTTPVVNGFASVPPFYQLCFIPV

[5] = Antagonist activity at guinea pig recombinant TRPV4 expressed in CHO-K1 cells assessed as blockade of 250 nM 4alphaPDD-induced calcium mobilization by FLIPR assay; type: cell-based; conditions: Cavia porcellus
[6] = Protein binding in guinea pig plasma; type: ADME, cell-free, Cavia porcellus; conditions: read-out: PPB (converted)
Cytochrome P450 3A4 = Cytochrome P450 3A4 (Homo sapiens, UniProt P08684); assay: Inhibition of CYP3A4 (unknown origin); type: ADME
Sequence of Cytochrome P450 3A4 (P08684 whole entry): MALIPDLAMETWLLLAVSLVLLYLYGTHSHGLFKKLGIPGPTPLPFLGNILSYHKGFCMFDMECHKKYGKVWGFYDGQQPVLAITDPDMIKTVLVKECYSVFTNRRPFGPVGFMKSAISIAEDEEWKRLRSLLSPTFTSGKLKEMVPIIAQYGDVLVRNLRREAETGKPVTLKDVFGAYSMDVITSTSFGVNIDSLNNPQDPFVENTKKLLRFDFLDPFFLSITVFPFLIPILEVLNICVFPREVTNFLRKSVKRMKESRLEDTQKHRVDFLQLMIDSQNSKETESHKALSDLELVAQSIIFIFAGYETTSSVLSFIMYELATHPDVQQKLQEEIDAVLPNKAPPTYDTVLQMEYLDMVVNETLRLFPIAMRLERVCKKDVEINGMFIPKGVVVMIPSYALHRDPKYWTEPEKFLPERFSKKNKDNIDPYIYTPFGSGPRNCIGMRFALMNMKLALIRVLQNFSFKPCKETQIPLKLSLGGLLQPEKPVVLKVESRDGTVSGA

[7] = Cmax in guinea pig at 1 mg/kg, po; type: ADME, organism-based, Cavia porcellus; parameters: dose 1 mg/kg, route oral; conditions: in vivo
[8] = Volume of distribution at steady state in guinea pig at 0.5 mg/kg, iv; type: ADME, organism-based, Cavia porcellus; conditions: in vivo, read-out: Vdss
CHO-K1 = assay: Selectivity ratio of IC50 for guinea pig recombinant TRPV4 expressed in CHO-K1 cells to IC50 for human recombinant TRPV4 expressed in CHO-K1 cells; type: cell-based
Cytochrome P450 2D6 = Cytochrome P450 2D6 (Homo sapiens, UniProt P10635); assay: Inhibition of CYP2D6 (unknown origin); type: ADME
Sequence of Cytochrome P450 2D6 (P10635 whole entry): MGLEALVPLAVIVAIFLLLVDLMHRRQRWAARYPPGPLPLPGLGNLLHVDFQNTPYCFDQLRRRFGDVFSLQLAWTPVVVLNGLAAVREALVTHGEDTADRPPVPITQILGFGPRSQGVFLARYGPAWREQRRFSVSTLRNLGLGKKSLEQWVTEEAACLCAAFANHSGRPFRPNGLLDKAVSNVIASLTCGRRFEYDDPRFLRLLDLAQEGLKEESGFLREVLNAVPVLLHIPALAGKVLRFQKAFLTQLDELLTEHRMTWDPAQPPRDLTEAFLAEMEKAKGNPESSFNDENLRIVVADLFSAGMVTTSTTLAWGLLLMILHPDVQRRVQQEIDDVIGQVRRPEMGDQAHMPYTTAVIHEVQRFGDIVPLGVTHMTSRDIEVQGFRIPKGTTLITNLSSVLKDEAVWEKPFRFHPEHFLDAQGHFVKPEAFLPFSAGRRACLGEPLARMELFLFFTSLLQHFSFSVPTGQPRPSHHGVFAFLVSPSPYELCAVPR

[9] = Stability in guinea pig liver microsomes assessed as compound remaining after 30 mins in presence or absence of NADPH generating system at 37 degC; type: ADME, Cavia porcellus, microsome; conditions: read-out: Stability
Salmonella typhimurium = assay: Genotoxicity in Salmonella typhimurium by Ames test; type: toxicity, organism-based; conditions: salmonella enterica subsp. enterica serovar typhimurium
[10] = Plasma concentration in FCA-induced guinea pig mechanical hyperalgesia model at 30 mg/kg, po after 1 hr; type: ADME, organism-based, Cavia porcellus
Cavia porcellus [11] = assay: Analgesic activity in FCA-induced guinea pig mechanical hyperalgesia model assessed as reversal of mechanical hyperalgesia at 10 mg/kg, po after 1 hr (reference value: 1.6 +/- 3.4%); type: functional
Cytochrome P450 2C19 = Cytochrome P450 2C19 (Homo sapiens, UniProt P33261); assay: Inhibition of CYP2C19 (unknown origin); type: ADME
Sequence of Cytochrome P450 2C19 (P33261 whole entry): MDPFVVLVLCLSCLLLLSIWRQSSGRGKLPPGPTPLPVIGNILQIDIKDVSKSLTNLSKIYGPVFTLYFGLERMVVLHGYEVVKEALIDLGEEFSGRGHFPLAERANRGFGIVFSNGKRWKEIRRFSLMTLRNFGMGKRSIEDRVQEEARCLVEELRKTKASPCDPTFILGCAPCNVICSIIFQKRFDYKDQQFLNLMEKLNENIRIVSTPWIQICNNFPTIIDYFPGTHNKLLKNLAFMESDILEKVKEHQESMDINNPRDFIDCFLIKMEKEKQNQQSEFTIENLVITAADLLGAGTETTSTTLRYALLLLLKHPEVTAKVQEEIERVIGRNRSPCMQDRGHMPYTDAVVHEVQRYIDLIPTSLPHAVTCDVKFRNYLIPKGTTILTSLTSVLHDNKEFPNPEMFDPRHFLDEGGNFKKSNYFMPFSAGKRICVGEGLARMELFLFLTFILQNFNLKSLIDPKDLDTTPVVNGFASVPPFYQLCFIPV

[12] = target: Voltage-gated inwardly rectifying potassium channel KCNH2 (Homo sapiens, UniProt Q12809); assay: Inhibition of human ERG
Sequence of Voltage-gated inwardly rectifying potassium channel KCNH2 (Q12809 whole entry): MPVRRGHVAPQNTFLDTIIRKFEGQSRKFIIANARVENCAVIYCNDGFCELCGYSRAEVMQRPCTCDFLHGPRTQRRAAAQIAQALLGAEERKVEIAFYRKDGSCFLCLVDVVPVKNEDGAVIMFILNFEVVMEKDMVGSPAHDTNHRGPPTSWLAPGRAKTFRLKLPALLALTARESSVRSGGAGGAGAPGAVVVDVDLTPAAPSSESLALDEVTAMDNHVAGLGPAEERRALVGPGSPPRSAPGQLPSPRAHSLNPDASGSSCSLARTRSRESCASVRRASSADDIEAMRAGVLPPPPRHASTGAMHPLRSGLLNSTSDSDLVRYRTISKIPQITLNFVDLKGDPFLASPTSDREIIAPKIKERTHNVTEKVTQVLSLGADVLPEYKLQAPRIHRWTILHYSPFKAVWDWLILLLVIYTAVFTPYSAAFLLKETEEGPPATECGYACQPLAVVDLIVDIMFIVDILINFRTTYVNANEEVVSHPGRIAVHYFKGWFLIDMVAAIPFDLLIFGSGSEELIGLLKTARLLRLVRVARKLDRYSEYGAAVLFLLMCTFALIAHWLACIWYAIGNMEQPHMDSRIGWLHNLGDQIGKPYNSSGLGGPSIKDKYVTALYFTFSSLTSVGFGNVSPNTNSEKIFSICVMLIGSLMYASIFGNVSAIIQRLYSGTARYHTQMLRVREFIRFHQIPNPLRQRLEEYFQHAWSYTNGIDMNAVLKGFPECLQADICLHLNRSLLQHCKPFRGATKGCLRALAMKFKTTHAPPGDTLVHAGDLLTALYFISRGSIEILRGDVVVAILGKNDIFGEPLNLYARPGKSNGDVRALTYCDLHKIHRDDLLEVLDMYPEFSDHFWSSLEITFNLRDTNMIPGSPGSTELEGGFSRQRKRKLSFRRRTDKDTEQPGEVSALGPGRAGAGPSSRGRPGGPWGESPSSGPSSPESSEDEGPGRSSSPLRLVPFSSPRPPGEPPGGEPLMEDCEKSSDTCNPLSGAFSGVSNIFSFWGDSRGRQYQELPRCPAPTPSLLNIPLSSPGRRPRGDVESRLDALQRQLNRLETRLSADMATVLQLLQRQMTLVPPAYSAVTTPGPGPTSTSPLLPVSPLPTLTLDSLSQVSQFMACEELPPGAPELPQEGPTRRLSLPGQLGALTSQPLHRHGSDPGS

[13] = Oral bioavailability in guinea pig at 1 mg/kg; type: ADME, organism-based, Cavia porcellus; conditions: in vivo
[14] = Tmax in guinea pig at 1 mg/kg, po; type: ADME, organism-based, Cavia porcellus; conditions: in vivo
[15] = target: Transient receptor potential cation channel subfamily V member 1 (Homo sapiens, UniProt Q8NER1); assay: Antagonist activity at human TRPV1 expressed in CHO cells assessed as blockade of 100 nM capsaicin-induced calcium mobilization by FLIPR assay; type: cell-based
Sequence of Transient receptor potential cation channel subfamily V member 1 (Q8NER1 whole entry): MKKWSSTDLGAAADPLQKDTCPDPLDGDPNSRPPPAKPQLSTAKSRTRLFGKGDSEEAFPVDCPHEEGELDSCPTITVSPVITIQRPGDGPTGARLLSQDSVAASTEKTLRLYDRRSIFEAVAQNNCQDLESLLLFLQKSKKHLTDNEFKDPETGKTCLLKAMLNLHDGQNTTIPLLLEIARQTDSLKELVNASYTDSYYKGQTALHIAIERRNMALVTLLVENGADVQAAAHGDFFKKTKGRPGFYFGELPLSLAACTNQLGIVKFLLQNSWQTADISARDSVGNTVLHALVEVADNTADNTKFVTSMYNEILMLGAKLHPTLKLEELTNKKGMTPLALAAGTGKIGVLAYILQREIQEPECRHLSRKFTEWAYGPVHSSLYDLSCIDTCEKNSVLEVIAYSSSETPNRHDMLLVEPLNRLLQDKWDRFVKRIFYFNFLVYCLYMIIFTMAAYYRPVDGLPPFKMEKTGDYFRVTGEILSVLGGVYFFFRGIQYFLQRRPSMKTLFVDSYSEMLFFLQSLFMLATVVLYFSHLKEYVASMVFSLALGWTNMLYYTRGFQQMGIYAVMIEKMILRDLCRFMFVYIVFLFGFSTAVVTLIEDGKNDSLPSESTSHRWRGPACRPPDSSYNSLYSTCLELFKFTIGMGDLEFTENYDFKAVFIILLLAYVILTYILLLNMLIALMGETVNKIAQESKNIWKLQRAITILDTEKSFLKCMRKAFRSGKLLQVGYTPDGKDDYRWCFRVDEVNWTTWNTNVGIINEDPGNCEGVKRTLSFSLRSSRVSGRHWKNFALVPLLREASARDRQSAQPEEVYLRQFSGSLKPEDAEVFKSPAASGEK

[16] = Plasma concentration in FCA-induced guinea pig mechanical hyperalgesia model at 10 mg/kg, po after 1 hr; type: ADME, organism-based, Cavia porcellus
[17] = Total clearance in guinea pig at 0.5 mg/kg, iv; type: ADME, organism-based, Cavia porcellus; conditions: in vivo
Cavia porcellus [18] = assay: Analgesic activity in FCA-induced guinea pig mechanical hyperalgesia model assessed as reversal of mechanical hyperalgesia at 30 mg/kg, po after 1 hr (reference value: 1.6 +/- 3.4%); type: functional
[19] = AUC in guinea pig at 1 mg/kg, po; type: ADME, organism-based, Cavia porcellus; conditions: in vivo
[20] = target: T1, Transient receptor potential cation channel subfamily V member 4; assay: Antagonist activity at human recombinant TRPV4 expressed in CHO-K1 cells assessed as blockade of hypotonic solution-induced calcium mobilization by FLIPR assay; type: cell-based

SMILES: Cc1nc(C)c(-c2csc(Nc3ccc(C(=O)NC4CCCCC4)cn3)n2)s1
- IC50 [1]: 29 nM
- solubility [2]: 1.8 µM (≈ 0.744 µg/mL)
- remaining at 0.5 h [3]: 55%

SMILES: Cc1nc(C)c(-c2csc(Nc3cccc(C#N)n3)n2)s1
- IC50 [1]: 100 nM
- remaining at 0.5 h [3]: 66.4%

SMILES: Cc1nc(C)c(-c2csc(Nc3ccc(C(=O)N4C(C)CCCC4C)cn3)n2)s1 (centres undefined)
- IC50 [1]: 6.3 nM
- solubility [2]: < 0.1 µM
- remaining at 0.5 h [3]: 2.1%

SMILES: Cc1nc(C)c(-c2csc(Nc3ccc(C(=O)N4C(C)CC(=O)CC4C)cn3)n2)s1 (centres undefined)
- IC50 [1]: 46 nM
- solubility [2]: 45 µM (≈ 19.9 µg/mL)
- remaining at 0.5 h [3]: 52.8%

SMILES: Cc1nc(C)c(-c2csc(Nc3ccc(Br)cc3)n2)s1
- IC50 [1]: 34 nM
- remaining at 0.5 h [3]: 86.4%

SMILES: Cc1nc(C)c(-c2csc(Nc3ccc(C(=O)N4C5CCC4CC(=O)C5)cn3)n2)s1
- solubility [2]: 46.4 µM (≈ 20.4 µg/mL)
- remaining at 0.5 h [3]: 81%

SMILES: COc1cccnc1Nc1nc(-c2sc(C)nc2C)cs1
- IC50 [1]: > 10000 nM
- remaining at 0.5 h [3]: 30.9%

SMILES: Cc1nc(C)c(-c2csc(Nc3ccc(C(=O)N(C)c4ccc(Cl)cc4)cn3)n2)s1
- IC50 [1]: 50 nM
- solubility [2]: 1.4 µM (≈ 0.638 µg/mL)
- remaining at 0.5 h [3]: 53.6%

SMILES: COc1ccc(Nc2nc(-c3sc(C)nc3C)cs2)nc1
- IC50 [1]: 35 nM
- remaining at 0.5 h [3]: 10%

SMILES: Cc1nc(C)c(-c2csc(Nc3ccccc3)n2)s1
- IC50 [1]: 31 nM
- remaining at 0.5 h [3]: 22.8%

SMILES: Cc1nc(C)c(-c2csc(Nc3ccc(NC(=O)c4ccc(Cl)cc4)cn3)n2)s1
- IC50 [1]: > 10000 nM
- solubility [2]: 3.9 µM (≈ 1.72 µg/mL)
- remaining at 0.5 h [3]: 65.2%

SMILES: Cc1nc(C)c(-c2csc(Nc3ccc(NS(=O)(=O)c4ccc(Cl)cc4)cn3)n2)s1
- IC50 [1]: 240 nM
- solubility [2]: 1.2 µM (≈ 0.574 µg/mL)
- remaining at 0.5 h [3]: 81.5%

SMILES: COc1cccc(Nc2nc(-c3sc(C)nc3C)cs2)n1
- IC50 [1]: 23 nM
- remaining at 0.5 h [3]: 40%

SMILES: Cc1nc(C)c(-c2csc(Nc3ncccc3C#N)n2)s1
- IC50 [1]: 4300 nM
- remaining at 0.5 h [3]: 1.3%

SMILES: Cc1nc(C)c(-c2csc(Nc3ccc(S(=O)(=O)Nc4ccc(Cl)cc4)cn3)n2)s1
- IC50 [1]: 290 nM
- solubility [2]: 4.5 µM (≈ 2.15 µg/mL)
- remaining at 0.5 h [3]: 83.4%

SMILES: Cc1nc(C)c(-c2csc(Nc3ccncc3)n2)s1
- IC50 [1]: 3300 nM
- remaining at 0.5 h [3]: 17.8%

SMILES: Cc1nc(C)c(-c2csc(Nc3ccc(C(=O)NCc4ccc(Cl)cc4)cn3)n2)s1
- IC50 [1]: 200 nM
- solubility [2]: 2.5 µM (≈ 1.14 µg/mL)
- remaining at 0.5 h [3]: 50.8%

SMILES: Cc1nc(C)c(-c2csc(Nc3ncccn3)n2)s1
- IC50 [1]: 10000 nM
- remaining at 0.5 h [3]: 0.3%

SMILES: Cc1nc(C)c(-c2csc(Nc3cccnc3)n2)s1
- IC50 [1]: 490 nM
- remaining at 0.5 h [3]: 39.5%

SMILES: Cc1nc(C)c(-c2csc(Nc3ccc(C(=O)Nc4ccc(Cl)cc4)cn3)n2)s1
- IC50 [1]: 9.5 nM
- solubility [2]: 10.6 µM (≈ 4.68 µg/mL)
- remaining at 0.5 h [3]: 54.6%

SMILES: Cc1nc(C)c(-c2csc(Nc3ccc(C#N)cn3)n2)s1
- IC50 [1]: 22 nM
- solubility [2]: 1.7 µM (≈ 0.533 µg/mL)
- remaining at 0.5 h [3]: 65%

SMILES: Cc1nc(C)c(-c2csc(Nc3ccc(C(=O)N4CCCCC4)cn3)n2)s1
- IC50 [1]: 37 nM
- solubility [2]: 0.8 µM (≈ 0.32 µg/mL)
- remaining at 0.5 h [3]: 74.5%

SMILES: Cc1nc(C)c(-c2csc(Nc3ccccn3)n2)s1
- IC50 [1]: 10 nM
- remaining at 0.5 h [3]: 1.1%

SMILES: CCNC(=O)c1ccc(Nc2nc(-c3sc(C)nc3C)cs2)nc1
- IC50 [1]: > 10000 nM
- solubility [2]: 2.8 µM (≈ 1.01 µg/mL)
- remaining at 0.5 h [3]: 81.4%

SMILES: COc1ccnc(Nc2nc(-c3sc(C)nc3C)cs2)c1
- IC50 [1]: 410 nM
- remaining at 0.5 h [3]: 0.7%

SMILES: Cc1nc(C)c(-c2csc(Nc3ccc(C(=O)O)cn3)n2)s1
- IC50 [1]: > 10000 nM
- solubility [2]: > 50 µM
- remaining at 0.5 h [3]: 100%

SMILES: Cc1nc(C)c(-c2csc(Nc3ccc(C(=O)N4C5COCC4CC(=O)C5)cn3)n2)s1
- INH (Cytochrome P450 1A2): > 20 µM
- half-life [4]: 66 min
- INH (Cytochrome P450 2C9): > 20 µM
- IC50 [5]: 27 nM
- fraction unbound [6]: 0.1
- INH (Cytochrome P450 3A4): > 20 µM
- Cmax [7]: 59.2 ng/mL
- Vd [8]: 2.5 L/kg
- Ratio IC50 (CHO-K1): 1.4
- INH (Cytochrome P450 2D6): > 20 µM
- remaining at 0.5 h [9]: 84%
- Activity (Salmonella typhimurium): Non-Toxic
- concentration at 1 h [10]: 1940 ng/mL
- Activity (Cavia porcellus [11]): 30.8%
- solubility [2]: > 50 µM
- INH (Cytochrome P450 2C19): > 20 µM
- IC50 [12]: > 30000 nM
- bioavailability [13]: 38.6%
- Tmax [14]: 30 min
- IC50 [15]: > 10000 nM
- concentration at 1 h [16]: 515 ng/mL
- clearance [17]: 37.1 mL/min/kg
- Activity (Cavia porcellus [18]): 45.6%
- remaining at 0.5 h [3]: 100%
- AUC [19]: 200 ng·h/mL
- IC50 [20]: 3.1 nM

SMILES: Cc1nc(C)c(-c2csc(Nc3cc(C#N)ccn3)n2)s1
- IC50 [1]: 240 nM
- remaining at 0.5 h [3]: 2.8%

SMILES: CCOC(=O)c1ccc(Nc2nc(-c3sc(C)nc3C)cs2)nc1
- IC50 [1]: 11 nM
- solubility [2]: 3.4 µM (≈ 1.23 µg/mL)
- remaining at 0.5 h [3]: 13.5%

SMILES: Cc1nc(C)c(-c2csc(Nc3ccc(C(=O)N4CCC(=O)CC4)cn3)n2)s1
- IC50 [1]: 620 nM
- solubility [2]: > 50 µM
- remaining at 0.5 h [3]: 1.4%
